Results taken from ChEMBL document CHEMBL1201862, “PubChem BioAssay data set” (2004).
The source made the active and inactive calls.

Key:
[1] = biological target: T1, Heat shock factor protein 1 (Mus musculus, UniProt P38532); assay: HSF1 potentiators in luciferase reporter cells, confirmation, cell-based, NIH3T3, luminescence, dose retest (AID 435004); assay type: functional;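 also: stress induced by proteasome inhibitor MG132 added 30 min after compound; luciferase reporter driven by HSF1 response element in NIH3T3 cells; actives raise luminescence as potentiators of the MG132 stress response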
T1 sequence (P38532 whole entry): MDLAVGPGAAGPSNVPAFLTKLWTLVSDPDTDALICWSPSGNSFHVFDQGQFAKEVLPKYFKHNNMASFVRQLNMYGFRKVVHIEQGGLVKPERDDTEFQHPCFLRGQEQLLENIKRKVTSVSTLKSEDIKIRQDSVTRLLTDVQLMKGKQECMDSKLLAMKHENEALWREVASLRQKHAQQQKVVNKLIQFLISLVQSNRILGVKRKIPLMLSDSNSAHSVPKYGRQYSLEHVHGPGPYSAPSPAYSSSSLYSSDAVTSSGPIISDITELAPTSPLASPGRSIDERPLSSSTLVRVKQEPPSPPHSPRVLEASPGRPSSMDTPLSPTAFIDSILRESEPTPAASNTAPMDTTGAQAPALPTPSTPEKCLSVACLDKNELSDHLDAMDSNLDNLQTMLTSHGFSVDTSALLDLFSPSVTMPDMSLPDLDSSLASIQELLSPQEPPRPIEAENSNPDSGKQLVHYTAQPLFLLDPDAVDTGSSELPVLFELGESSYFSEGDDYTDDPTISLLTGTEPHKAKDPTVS

[2] = Luminescence Cell-Based Dose Confirmation HTS to Identify Activators of 5'UTR Stem-Loop Driven Alpha-Synuclein mRNA Translation in H4 Neuroglioblastoma Cells. [Related pubchem assays: 1829 (Project Summary), 1814 (Primary HTS)]; assay type: functional
[3] = tested on: H4; assay: Luminescence Cell-Based Dose Response HTS to Identify Activators of 5'UTR Stem-Loop Driven Prion Protein mRNA Translation in H4 Neuroglioblastoma Cells. [Related pubchem assays: 1829 (Project Summary), 1814 (Primary HTS)]; assay type: functional; conditions: Homo sapiens
[4] = Luminescence Cell-Based Dose Response HTS to Identify Activators of Luciferase Translation or Activity in H4 […] Cells. [Related pubchem assays: 1829 (Project Summary), 1814 (Primary HTS)]; assay type: functional
[5] = biological target: T1, Heat shock factor protein 1; assay: inhibition of MG132-induced HSE-luciferase signal, confirmation, cell-based, NIH3T3, luminescence, dose retest (AID 2382); assay type: functional;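 also: NIH3T3 fibroblasts with HSF1-driven luciferase reporter stressed by proteasome inhibitor MG132; luminescence from HSF1-driven luciferase expression after 8 hours of MG132 stress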
[6] = biological target: T2, Replicative DNA helicase DnaB (Mycobacterium tuberculosis, UniProt P9WMR3); assay: DnaB intein splicing inhibitors, dose response, biochemical, cell-free fluorescence (AID 449749); assay type: functional
T2 sequence (P9WMR3 whole entry): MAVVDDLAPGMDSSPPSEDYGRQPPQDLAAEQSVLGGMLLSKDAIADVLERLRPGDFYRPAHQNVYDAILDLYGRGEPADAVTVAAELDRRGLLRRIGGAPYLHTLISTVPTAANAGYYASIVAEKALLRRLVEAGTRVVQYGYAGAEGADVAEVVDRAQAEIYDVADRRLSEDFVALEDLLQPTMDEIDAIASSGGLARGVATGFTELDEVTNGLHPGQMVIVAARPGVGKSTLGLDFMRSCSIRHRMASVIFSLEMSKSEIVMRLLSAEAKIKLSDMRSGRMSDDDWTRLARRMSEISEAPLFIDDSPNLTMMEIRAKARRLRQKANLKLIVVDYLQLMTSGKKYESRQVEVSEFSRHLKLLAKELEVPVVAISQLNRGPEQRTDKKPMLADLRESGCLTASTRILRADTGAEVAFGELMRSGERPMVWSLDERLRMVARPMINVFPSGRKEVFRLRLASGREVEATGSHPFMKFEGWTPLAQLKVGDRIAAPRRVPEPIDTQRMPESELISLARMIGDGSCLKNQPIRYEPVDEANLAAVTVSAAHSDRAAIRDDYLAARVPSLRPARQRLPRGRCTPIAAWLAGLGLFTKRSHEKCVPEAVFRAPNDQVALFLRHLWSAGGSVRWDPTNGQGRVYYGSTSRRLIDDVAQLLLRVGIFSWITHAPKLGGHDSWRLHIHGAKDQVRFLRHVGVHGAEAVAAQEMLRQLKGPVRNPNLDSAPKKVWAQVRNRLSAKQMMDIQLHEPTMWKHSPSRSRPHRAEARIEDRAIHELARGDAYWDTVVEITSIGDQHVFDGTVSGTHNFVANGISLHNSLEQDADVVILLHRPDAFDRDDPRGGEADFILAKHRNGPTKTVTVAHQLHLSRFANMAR

[7] = biological target: T3, Rac GTPase-activating protein 1 (Homo sapiens, UniProt Q9H0H5); assay: MgcRacGAP GTPase-activating activity inhibitors, confirmation, biochemical, ADP Hunter fluorescence, primary and confirmatory (AID 624330); assay type: functional
T3 sequence (Q9H0H5 whole entry): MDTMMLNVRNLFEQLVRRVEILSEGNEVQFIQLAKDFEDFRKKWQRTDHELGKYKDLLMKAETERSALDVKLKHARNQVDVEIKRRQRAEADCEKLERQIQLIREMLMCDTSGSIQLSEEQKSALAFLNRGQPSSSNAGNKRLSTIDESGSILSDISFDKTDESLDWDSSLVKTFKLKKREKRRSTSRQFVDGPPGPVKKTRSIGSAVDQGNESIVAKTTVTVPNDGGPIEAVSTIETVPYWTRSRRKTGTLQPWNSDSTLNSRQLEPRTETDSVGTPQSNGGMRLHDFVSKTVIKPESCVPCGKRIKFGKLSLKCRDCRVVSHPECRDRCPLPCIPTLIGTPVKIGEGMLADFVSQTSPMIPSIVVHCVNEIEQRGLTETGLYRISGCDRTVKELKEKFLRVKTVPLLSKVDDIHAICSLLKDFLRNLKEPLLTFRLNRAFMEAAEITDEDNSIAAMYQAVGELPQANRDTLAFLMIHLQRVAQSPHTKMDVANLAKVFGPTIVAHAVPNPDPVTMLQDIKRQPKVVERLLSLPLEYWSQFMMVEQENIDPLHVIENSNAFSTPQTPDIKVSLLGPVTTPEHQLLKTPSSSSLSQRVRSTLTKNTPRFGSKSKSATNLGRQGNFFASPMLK

[8] = HEp-2 cell cytotoxicity, dose response, cytotoxicity control for RSV inhibitor project, HTS (AID 2410); assay type: functional; conditions: human respiratory syncytial virus
[9] = biological target: T4, Protein RecA (Mycobacterium tuberculosis, UniProt P9WHJ3); assay: Fluorescence Cell-Free Homogeneous Dose Retest to Identify Inhibitors of RecA-Intein Splicing Activity. [Related pubchem assays (depositor defined):AID2097, AID2223, AID489010, AID492950]; assay type: functional
T4 sequence (P9WHJ3 whole entry): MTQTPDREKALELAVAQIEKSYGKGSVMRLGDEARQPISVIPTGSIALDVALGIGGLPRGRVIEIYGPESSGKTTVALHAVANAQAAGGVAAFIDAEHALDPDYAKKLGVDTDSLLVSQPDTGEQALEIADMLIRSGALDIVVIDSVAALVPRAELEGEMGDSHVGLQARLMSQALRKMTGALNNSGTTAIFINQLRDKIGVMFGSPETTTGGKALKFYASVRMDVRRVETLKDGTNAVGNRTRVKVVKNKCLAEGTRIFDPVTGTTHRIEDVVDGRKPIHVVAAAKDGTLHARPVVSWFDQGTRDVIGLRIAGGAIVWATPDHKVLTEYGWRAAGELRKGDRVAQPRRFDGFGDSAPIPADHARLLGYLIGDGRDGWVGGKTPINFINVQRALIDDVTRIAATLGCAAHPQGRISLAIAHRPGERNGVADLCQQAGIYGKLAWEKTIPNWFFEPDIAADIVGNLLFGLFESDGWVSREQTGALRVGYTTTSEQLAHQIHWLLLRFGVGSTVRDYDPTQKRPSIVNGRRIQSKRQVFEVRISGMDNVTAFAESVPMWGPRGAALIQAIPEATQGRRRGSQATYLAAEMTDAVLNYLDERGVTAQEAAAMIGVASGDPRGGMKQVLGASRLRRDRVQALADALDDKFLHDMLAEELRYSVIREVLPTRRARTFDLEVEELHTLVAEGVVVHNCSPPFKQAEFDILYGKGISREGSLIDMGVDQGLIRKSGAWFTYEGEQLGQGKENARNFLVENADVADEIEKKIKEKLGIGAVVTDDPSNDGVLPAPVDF

[10] = biological target: Cytochrome P450 3A4 (Homo sapiens, UniProt P08684);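 also: CYP3A4 tested as one member of a cytochrome P450 panel screen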
[11] = biological target: T5, Cytochrome P450 1A2 (Homo sapiens, UniProt P05177);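 also: PubChem cytochrome P450 panel assay, CYP1A2 panel member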
T5 sequence (P05177 whole entry): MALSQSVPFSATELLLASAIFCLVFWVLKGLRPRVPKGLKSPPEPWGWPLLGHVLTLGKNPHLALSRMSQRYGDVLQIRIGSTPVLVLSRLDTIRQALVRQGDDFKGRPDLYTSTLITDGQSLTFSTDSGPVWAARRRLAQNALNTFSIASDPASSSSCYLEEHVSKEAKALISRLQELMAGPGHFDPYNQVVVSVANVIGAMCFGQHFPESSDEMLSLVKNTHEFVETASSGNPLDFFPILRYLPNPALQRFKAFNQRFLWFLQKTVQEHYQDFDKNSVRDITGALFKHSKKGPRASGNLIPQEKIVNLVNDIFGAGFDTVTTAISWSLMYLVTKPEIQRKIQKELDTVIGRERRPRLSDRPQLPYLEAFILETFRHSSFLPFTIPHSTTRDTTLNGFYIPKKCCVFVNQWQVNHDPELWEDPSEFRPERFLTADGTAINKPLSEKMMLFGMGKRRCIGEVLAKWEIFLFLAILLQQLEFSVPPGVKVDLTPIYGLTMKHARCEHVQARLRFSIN

[12] = biological target: Paired box protein Pax-8 (Homo sapiens, UniProt Q06710); assay: inhibitors of PAX8-driven TPO luciferase reporter, dose response, RMG-I cells, cherry-pick (AID 687027); assay type: functional, cell-based;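 also: luciferase reporter driven by Pax8 target thyroperoxidase promoter measured by SteadyGlo luminescence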
Chain of Paired box protein Pax-8 (Q06710 whole entry): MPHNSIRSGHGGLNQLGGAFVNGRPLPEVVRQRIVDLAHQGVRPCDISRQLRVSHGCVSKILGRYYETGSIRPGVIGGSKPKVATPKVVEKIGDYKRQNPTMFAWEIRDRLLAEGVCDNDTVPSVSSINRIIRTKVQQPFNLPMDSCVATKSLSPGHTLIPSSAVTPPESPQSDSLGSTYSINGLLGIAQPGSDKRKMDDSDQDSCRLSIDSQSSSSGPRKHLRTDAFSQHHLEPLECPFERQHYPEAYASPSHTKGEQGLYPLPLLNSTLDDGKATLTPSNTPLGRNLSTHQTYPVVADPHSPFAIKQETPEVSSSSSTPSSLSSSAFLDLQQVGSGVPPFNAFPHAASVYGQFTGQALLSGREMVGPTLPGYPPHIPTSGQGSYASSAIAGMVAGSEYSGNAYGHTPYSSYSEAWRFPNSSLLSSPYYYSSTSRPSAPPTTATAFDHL

Chain of Cytochrome P450 3A4 (P08684 whole entry): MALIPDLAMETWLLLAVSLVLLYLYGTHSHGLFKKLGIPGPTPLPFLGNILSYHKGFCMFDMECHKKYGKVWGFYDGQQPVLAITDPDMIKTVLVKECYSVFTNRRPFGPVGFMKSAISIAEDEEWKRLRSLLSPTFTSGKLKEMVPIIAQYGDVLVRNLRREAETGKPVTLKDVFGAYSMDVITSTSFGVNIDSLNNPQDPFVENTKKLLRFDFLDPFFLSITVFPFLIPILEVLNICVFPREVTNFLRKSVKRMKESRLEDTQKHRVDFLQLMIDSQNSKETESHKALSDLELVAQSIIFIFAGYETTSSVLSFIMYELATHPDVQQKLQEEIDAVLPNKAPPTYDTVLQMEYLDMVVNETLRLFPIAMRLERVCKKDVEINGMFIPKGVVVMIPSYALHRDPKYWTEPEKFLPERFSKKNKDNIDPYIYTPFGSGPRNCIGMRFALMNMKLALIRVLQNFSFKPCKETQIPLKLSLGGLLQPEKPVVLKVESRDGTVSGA

NS(=O)(=O)c1ccc(CCNC(=O)c2ccc([N+](=O)[O-])s2)cc1
EC50 [1]: 15.7 µM (active)

CCOC(=O)c1c(N2C(=O)C3C4C=CC(O4)C3C2=O)sc2c1CCCC2 (configuration not stated)
EC50 [1]: > 260 µM (inactive)

CCOc1ccc(NC(=O)c2cccc3ccccc23)cc1
EC50 [2]: 72.3 µM (active) | EC50 [3]: > 120 µM (not active) | EC50 [4]: 11.5 µM (active)

CCc1ccc(NC(=O)c2cnc3scc(C)n3c2=O)cc1
EC50 [2]: 9.98 µM (active) | EC50 [3]: 12.6 µM (active) | EC50 [4]: 17.6 µM (active)

O=C(CCS(=O)(=O)c1ccccc1)Nc1ccccn1
EC50 [1]: > 260 µM (inactive)

CSc1ccc(N2C(=O)NC3(CCCCC3)C2=O)cc1
EC50 [2]: 20.4 µM (active) | EC50 [3]: 19.7 µM (active) | EC50 [4]: 96.3 µM (active)

O=C(CSc1ncccn1)NCCc1ccccc1
EC50 [5]: > 195 µM (not active)

COc1cccc(-n2c(SCC(=O)NCC3CCCO3)nc3c(c2=O)SCC3)c1 (configuration not stated)
EC50 [5]: > 195 µM (not active)

Cc1cc(O)ccc1Nc1nc(-c2cccs2)cs1
AC50 [6]: 13.2 µM (active) | IC50 [7]: 46.5 µM (active) | CC50 [8]: 21 µM (active) | EC50 [9]: 11.5 µM (active)

COCCCNC(=O)c1ccc(NS(C)(=O)=O)cc1
EC50 [1]: > 260 µM (inactive)

Cc1ccc(NC(=O)CN(C)C2CCCCC2)cc1Cl
EC50 [5]: > 195 µM (not active) | IC50 [7]: 152 µM (active)

O=C(CSCc1ccccc1)Nc1ccc2c(c1)OCO2
EC50 [2]: 26 µM (active) | EC50 [3]: 18.6 µM (active) | EC50 [4]: 2.27 µM (inconclusive)

COc1cccc(CNc2ccc([N+](=O)[O-])cc2Cl)c1O
EC50 [1]: 163 µM (active)

Cc1ccc2c(c1)c1cccc3c1n2CCN3CCC(N)=O
EC50 [2]: 1.71 µM (active) | EC50 [3]: 9.21 µM (active) | EC50 [4]: > 120 µM (not active)

Cc1ccc(SCCCCN2CCOCC2)cc1
EC50 [1]: > 260 µM (inactive)

CC(C)(C)c1cc(-n2ccnc2)n2ncc(-c3ccc(Cl)cc3)c2n1
EC50 [2]: > 120 µM (not active) | EC50 [3]: 78.9 µM (active) | EC50 [4]: 13.7 µM (active)

NC(CSCc1cccc(Br)c1)C(=O)O (configuration not stated)
EC50 [1]: > 260 µM (inactive)

Oc1ccccc1N1CCN(c2ncnc3scc(-c4ccc(F)cc4)c23)CC1
EC50 [5]: > 195 µM (not active)

COc1ccc([C@@H]2[C@@H]3C(=O)N(C(C)(C)C)C(=O)[C@@H]3[C@]3(Cc4ccccc4)C(=O)N(c4cccc(C)c4)C(=O)N23)cc1
EC50 [2]: > 120 µM (not active) | EC50 [3]: > 120 µM (not active) | EC50 [4]: > 120 µM (not active)

Oc1onc(-c2ccccc2)c1-c1ccccc1
EC50 [5]: > 195 µM (not active)

CCCNC(=O)NC1C(NC(=O)NCCC)N(C)C(=O)N1C (configuration not stated)
EC50 [5]: > 195 µM (not active)

COc1ccccc1NC(=O)[C@H](COCc1ccccc1)NC(=O)OC(C)(C)C
AC50 [10]: 39.8 µM (inconclusive) | AC50 [11]: 25.1 µM (inconclusive) | EC50 [5]: > 195 µM (not active)

C=CCn1c(C)cc(C(=O)COC(=O)CNC(=O)c2ccccc2)c1C
EC50 [5]: 2.44 µM (active)

CC1=CC(C)=Nc2cc(C)ccc2N1
EC50 [2]: 33.3 µM (active) | EC50 [3]: 41.1 µM (active) | EC50 [4]: > 60 µM (not active)

CCOc1ccc(NC(=O)C2CC(=O)N3CCCN=C3S2)cc1 (configuration not stated)
EC50 [1]: > 260 µM (inactive)

Cc1ccc(S(=O)(=O)n2ccc(=O)[nH]2)cc1
EC50 [5]: > 195 µM (not active)

COc1ccc(C(c2nnnn2Cc2ccccc2)N2CCC(n3c(O)nc4ccccc43)CC2)cc1 (configuration not stated)
AC50 [12]: 6.91 µM (active)

O=C(Cc1ccccc1)Nc1cc(Cl)ccc1Sc1ccccc1
EC50 [1]: > 260 µM (inactive)

CN(C)c1ccc(/C=N/NC(=O)c2ccccc2Cl)cc1
EC50 [5]: > 195 µM (not active)

COc1cc(/C=N/N2CCN(C3c4ccccc4-c4ccccc43)CC2)cc(OC)c1OC
EC50 [1]: > 260 µM (inactive)
